Source: ChEMBL document CHEMBL1135763, “Discovery of aminothiazole inhibitors of cyclin-dependent kinase 2: synthesis, X-ray crystallographic analysis, and biological activities” (J Med Chem, 2002)

What was measured:
[1] = Tmax value at a dose of 10 mg/kg intravenous administration in mice.; assay type: ADME, organism-based; parameters: dose 10 mg/kg, route intravenous; conditions: mouse, in vivo
[2] = Tmax value at a dose of 10 mg/kg peroral administration in mice.; assay type: ADME, organism-based; parameters: dose 10 mg/kg, route oral; conditions: mouse, in vivo, po
Mus musculus [3] = assay: (§1) At a dose 50 mg/kg (114 umol/kg) was administered intraperitoneally to mice and was evaluated for MRT; assay type: functional, organism-based; parameters: dose 50 mg/kg
[4] = MRT value at a dose of 10 mg/kg intravenous administration in mice.; assay type: ADME, organism-based; parameters: dose 10 mg/kg, route intravenous; conditions: mouse, in vivo
[5] = MRT value at a dose of 10 mg/kg peroral administration in mice.; assay type: ADME, organism-based; parameters: dose 10 mg/kg, route oral; conditions: mouse, in vivo, po
A2780 [6] = assay: […] antitumor activity against A2780 human ovarian carcinoma at 7.5 mg/kg i.p. /qd x7; assay type: functional; conditions: route intraperitoneal
Mus musculus [7] = assay: AUC total value at a dose of 10 mg/kg intravenous administration in mice.; assay type: ADME, organism-based, Plasma; parameters: dose 10 mg/kg, route intravenous; conditions: in vivo
Mus musculus [8] = assay: AUC total value at a dose of 10 mg/kg peroral administration in mice.; assay type: ADME, organism-based, Plasma; parameters: dose 10 mg/kg, route oral; conditions: in vivo, po
Mus musculus [9] = assay: At a dose 50 mg/kg (114 umol/kg) was administered intraperitoneally to mice and was evaluated for area under curve (AUCtot); assay type: ADME, organism-based; parameters: time AUCmax, dose 50 mg/kg, route intraperitoneal; conditions: in vivo, ip
[10] = Vss value at a dose of 10 mg/kg intravenous administration in mice.; assay type: ADME, organism-based; parameters: dose 10 mg/kg, route intravenous; conditions: mouse, in vivo, read-out: Vss
[11] = At a dose 50 mg/kg (114 umol/kg) was administered intraperitoneally to mice and was evaluated for T max; assay type: ADME, organism-based; parameters: dose 50 mg/kg, route intraperitoneal; conditions: mouse, in vivo, ip
[12] = At a dose 50 mg/kg (114 umol/kg) was administered intraperitoneally to mice and was evaluated for half life (T1/2); assay type: ADME, organism-based; parameters: dose 50 mg/kg, route intraperitoneal; conditions: mouse, in vivo, ip
[13] = Half life at a dose of 10 mg/kg intravenous administration in mice.; assay type: ADME, organism-based; parameters: dose 10 mg/kg, route intravenous; conditions: mouse, in vivo
[14] = Half life at a dose of 10 mg/kg peroral administration in mice.; assay type: ADME, organism-based; parameters: dose 10 mg/kg, route oral; conditions: mouse, in vivo, po
[15] = Cmax value at a dose of 10 mg/kg intravenous administration in mice.; assay type: ADME, organism-based; parameters: dose 10 mg/kg, route intravenous; conditions: mouse, in vivo
[16] = Cmax value at a dose of 10 mg/kg peroral administration in mice.; assay type: ADME, organism-based; parameters: dose 10 mg/kg, route oral; conditions: mouse, in vivo, po
[17] = Plasma clearance at a dose of 10 mg/kg intravenous administration in mice.; assay type: ADME, organism-based; parameters: dose 10 mg/kg, route intravenous; conditions: mouse
[18] = At a dose 50 mg/kg (114 umol/kg) was administered intraperitoneally to mice and was evaluated for Cmax; assay type: ADME, organism-based; parameters: dose 50 mg/kg, route intraperitoneal; conditions: mouse, in vivo, ip
[19] = Bioavailability at a dose of 10 mg/kg peroral administration in mice.; assay type: ADME, organism-based; conditions: mouse, in vivo, po, read-out: Bioavailabiility
[20] = biological target: Cyclin-dependent kinase 4/cyclin D1 (Homo sapiens, UniProt P11802); assay: Inhibitory activity against baculovirus expressed Cyclin dependent kinase 4-cyclinD1; assay type: protein-complex assay
[21] = biological target: Receptor tyrosine-protein kinase erbB-2 (Homo sapiens, UniProt P04626); assay: Inhibition of HER2 kinase
Homo sapiens [22] = species: Homo sapiens; assay: Percent of serum binding in human; assay type: functional
[23] = Inhibition of I kappa-B kinase
[24] = Inhibition of Insulin-like growth factor receptor
Mus musculus [25] = species: Mus musculus; assay: Metabolic rate in mouse; assay type: ADME
Mus musculus [26] = species: Mus musculus; assay: Percent of serum binding in mouse; assay type: functional
P388 = assay: […] antitumor activity against P388 murine leukemia at 7.5 mg/kg i.p. /qd x7 and %T/C; assay type: functional, Mus musculus; conditions: route intraperitoneal
[27] = biological target: Protein kinase C beta type (Homo sapiens, UniProt P05771); assay: Inhibition of Protein kinase C beta
[28] = biological target: Protein kinase C delta type (Homo sapiens, UniProt Q05655); assay: Inhibition of Protein kinase C delta
[29] = biological target: Protein kinase C alpha type (Homo sapiens, UniProt P17252); assay: Inhibition of Protein kinase C alpha
[30] = biological target: Protein kinase C epsilon type (Homo sapiens, UniProt Q02156); assay: Inhibition of Protein kinase C epsilon
[31] = biological target: T1, Tyrosine-protein kinase ITK/TSK (Homo sapiens, UniProt Q08881); assay: Inhibition of tyrosine kinase EMT
T1 sequence (Q08881 whole entry): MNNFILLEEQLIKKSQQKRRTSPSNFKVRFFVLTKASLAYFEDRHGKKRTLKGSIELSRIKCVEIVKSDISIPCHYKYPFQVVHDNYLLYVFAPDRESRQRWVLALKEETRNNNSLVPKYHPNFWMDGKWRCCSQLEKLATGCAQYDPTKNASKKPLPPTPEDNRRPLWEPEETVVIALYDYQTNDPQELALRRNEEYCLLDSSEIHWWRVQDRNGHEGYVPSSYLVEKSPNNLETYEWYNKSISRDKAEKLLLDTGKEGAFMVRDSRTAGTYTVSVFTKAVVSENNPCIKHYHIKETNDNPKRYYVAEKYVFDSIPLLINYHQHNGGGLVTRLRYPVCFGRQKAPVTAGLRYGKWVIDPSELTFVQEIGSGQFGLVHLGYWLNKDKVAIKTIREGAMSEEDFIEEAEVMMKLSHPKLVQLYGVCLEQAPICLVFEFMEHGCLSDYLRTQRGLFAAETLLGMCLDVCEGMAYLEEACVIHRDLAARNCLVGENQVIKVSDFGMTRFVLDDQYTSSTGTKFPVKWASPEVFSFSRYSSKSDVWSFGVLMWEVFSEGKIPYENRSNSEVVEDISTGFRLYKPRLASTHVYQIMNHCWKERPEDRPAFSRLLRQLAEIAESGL

[32] = biological target: Tyrosine-protein kinase ZAP-70 (Homo sapiens, UniProt P43403); assay: Inhibition of Zeta-chain (TCR) associated protein kinase 70 kDa (ZAP70)
Homo sapiens [33] = species: Homo sapiens; assay: Metabolic rate in human; assay type: ADME
[34] = biological target: Protein kinase C zeta (Homo sapiens) (UniProt Q05513); assay: Inhibition of Protein kinase C zeta
[35] = as §1; assay type: ADME, organism-based; parameters: dose 50 mg/kg, route intraperitoneal; conditions: mouse, in vivo, ip
[36] = biological target: Cyclin-dependent kinase 2 (Homo sapiens) (UniProt P24941); assay: Percentage A2780 cells in G1 after 24 hr r at 5 nM (IC50); assay type: functional, cell-based
[37] = biological target: Cyclin-dependent kinase 2 (Homo sapiens) (UniProt P24941); assay: Percentage A2780 cells in G2/M after 24 hr r at 5 nM (IC50); assay type: functional, cell-based
[38] = biological target: Cyclin-dependent kinase 2 (Homo sapiens) (UniProt P24941); assay: Percentage A2780 cells in S-phase after 24 hr r at 5 nM (IC50); assay type: functional, cell-based
[39] = biological target: Cyclin-dependent kinase 2 (Homo sapiens) (UniProt P24941); assay: Percentage A2780 cells in sub-G1 after 24 hr r at 5 nM (IC50); assay type: functional, cell-based
[40] = biological target: Cyclin-dependent kinase 2 (Homo sapiens) (UniProt P24941); assay: Percentage A2780 cells in G1 after 24 hr r at 29 nM (IC90); assay type: functional, cell-based
[41] = biological target: Cyclin-dependent kinase 2 (Homo sapiens) (UniProt P24941); assay: Percentage A2780 cells in G2/M after 24 hr r at 29 nM (IC90); assay type: functional, cell-based
[42] = biological target: Cyclin-dependent kinase 2 (Homo sapiens) (UniProt P24941); assay: Percentage A2780 cells in S-phase after 24 hr r at 29 nM (IC90); assay type: functional, cell-based
[43] = biological target: Cyclin-dependent kinase 2 (Homo sapiens) (UniProt P24941); assay: Apoptotic A2780 cells after 24 hr r at 29 nM (IC90); assay type: functional, cell-based
[44] = biological target: Cyclin-dependent kinase 2 (Homo sapiens) (UniProt P24941); assay: Apoptotic A2780 cells after 24 hr r at 5 nM (IC50); assay type: functional, cell-based
[45] = biological target: Cyclin-dependent kinase 1/cyclin B (Homo sapiens, UniProt P06493); assay: Inhibitory activity against baculovirus expressed Cyclin dependent kinase 1-cyclinB; assay type: protein-complex assay
[46] = biological target: Cyclin-dependent kinase 2/cyclin E (Homo sapiens, UniProt P24941); assay: Inhibitory activity against baculovirus expressed Cyclin dependent kinase 2-cyclinE; assay type: protein-complex assay
HS27 = assay: Inhibition of Hs 27 human fibroblast cell proliferation; assay type: functional, cell-based
MLF = assay: Inhibition of MLF mouse lung fibroblast cell proliferation; assay type: functional, cell-based
M109 = assay: Inhibition of M109 mouse lung carcinoma cell proliferation; assay type: functional, cell-based
A2780 [47] = assay: cells; conditions: Homo sapiens
Description: Cytotoxic activity against A2780 human ovarian carcinoma cell line

[48] = biological target: Cyclin-dependent kinase 2 (Homo sapiens) (UniProt P24941); assay: Percentage A2780 cells in sub-G1 after 24 hr r at 29 nM (IC90)

Chain of Cyclin-dependent kinase 4/cyclin D1 (P11802 whole entry): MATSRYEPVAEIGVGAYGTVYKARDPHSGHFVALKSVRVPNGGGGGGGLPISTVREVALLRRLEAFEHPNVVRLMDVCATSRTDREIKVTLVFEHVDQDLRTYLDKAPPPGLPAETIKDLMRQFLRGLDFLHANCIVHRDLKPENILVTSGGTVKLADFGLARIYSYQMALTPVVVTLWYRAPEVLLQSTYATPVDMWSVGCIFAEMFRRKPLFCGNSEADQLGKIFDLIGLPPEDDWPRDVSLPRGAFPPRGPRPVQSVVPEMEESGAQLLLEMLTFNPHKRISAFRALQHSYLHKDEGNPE
Chain of Cyclin-dependent kinase 4/cyclin D1 (P24385 whole entry, further chain): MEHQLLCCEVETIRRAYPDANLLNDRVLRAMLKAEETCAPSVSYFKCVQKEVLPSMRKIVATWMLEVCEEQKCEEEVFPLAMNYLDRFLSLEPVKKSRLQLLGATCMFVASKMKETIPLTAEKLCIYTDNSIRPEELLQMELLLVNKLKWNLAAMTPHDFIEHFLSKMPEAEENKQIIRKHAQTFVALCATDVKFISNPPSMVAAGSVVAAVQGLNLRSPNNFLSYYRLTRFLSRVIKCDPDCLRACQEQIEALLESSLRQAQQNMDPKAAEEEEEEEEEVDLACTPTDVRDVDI
Chain of Receptor tyrosine-protein kinase erbB-2 (P04626 whole entry): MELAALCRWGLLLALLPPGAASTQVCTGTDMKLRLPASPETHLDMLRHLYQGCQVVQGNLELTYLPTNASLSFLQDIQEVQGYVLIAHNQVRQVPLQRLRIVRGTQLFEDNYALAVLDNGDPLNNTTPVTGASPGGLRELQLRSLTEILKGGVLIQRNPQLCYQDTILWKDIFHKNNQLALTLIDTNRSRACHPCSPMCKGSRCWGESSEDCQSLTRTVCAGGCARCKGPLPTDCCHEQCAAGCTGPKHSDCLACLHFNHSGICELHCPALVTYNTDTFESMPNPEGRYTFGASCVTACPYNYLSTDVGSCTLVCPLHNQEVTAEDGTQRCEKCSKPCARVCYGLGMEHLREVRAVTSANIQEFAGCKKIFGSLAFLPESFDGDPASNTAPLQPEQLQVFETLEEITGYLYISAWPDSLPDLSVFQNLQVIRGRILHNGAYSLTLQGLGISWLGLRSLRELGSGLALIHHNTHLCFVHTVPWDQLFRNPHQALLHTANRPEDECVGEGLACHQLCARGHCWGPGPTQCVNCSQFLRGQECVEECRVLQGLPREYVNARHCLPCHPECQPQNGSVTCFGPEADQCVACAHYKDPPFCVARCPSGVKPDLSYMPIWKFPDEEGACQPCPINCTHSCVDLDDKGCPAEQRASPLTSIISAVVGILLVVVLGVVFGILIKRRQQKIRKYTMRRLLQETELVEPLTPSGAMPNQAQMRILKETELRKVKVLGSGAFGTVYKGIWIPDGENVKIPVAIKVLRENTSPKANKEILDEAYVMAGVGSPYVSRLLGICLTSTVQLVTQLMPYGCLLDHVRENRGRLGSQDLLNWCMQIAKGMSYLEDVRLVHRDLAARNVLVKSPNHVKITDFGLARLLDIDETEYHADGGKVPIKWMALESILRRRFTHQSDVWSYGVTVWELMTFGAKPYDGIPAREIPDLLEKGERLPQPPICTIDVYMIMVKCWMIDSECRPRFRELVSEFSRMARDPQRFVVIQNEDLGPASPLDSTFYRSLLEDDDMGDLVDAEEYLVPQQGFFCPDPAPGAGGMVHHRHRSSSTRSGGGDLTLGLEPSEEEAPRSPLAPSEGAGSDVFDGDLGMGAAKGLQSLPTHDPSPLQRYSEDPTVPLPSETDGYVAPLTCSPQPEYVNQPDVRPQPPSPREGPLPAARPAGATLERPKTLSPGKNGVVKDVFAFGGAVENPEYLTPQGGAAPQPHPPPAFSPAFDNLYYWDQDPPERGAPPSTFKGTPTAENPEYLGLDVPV
Chain of Protein kinase C delta type (Q05655 whole entry): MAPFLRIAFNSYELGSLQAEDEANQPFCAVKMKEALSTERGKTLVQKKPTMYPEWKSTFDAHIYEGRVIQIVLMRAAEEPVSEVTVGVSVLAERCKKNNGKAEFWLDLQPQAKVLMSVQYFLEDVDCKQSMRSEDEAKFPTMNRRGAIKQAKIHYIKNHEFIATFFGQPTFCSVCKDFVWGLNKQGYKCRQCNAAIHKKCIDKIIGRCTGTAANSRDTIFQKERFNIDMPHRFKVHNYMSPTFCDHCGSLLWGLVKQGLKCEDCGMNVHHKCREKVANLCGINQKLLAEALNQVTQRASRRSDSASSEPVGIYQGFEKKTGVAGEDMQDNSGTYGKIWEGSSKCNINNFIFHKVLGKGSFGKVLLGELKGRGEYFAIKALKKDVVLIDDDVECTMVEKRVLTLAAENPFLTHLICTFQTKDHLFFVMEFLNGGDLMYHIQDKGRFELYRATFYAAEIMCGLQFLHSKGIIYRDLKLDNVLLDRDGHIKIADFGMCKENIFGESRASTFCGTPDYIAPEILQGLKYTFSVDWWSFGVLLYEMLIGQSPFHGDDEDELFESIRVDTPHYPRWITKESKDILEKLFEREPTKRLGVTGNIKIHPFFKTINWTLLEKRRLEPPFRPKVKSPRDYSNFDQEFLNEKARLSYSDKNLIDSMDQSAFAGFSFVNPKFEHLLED
Chain of Tyrosine-protein kinase ZAP-70 (P43403 whole entry): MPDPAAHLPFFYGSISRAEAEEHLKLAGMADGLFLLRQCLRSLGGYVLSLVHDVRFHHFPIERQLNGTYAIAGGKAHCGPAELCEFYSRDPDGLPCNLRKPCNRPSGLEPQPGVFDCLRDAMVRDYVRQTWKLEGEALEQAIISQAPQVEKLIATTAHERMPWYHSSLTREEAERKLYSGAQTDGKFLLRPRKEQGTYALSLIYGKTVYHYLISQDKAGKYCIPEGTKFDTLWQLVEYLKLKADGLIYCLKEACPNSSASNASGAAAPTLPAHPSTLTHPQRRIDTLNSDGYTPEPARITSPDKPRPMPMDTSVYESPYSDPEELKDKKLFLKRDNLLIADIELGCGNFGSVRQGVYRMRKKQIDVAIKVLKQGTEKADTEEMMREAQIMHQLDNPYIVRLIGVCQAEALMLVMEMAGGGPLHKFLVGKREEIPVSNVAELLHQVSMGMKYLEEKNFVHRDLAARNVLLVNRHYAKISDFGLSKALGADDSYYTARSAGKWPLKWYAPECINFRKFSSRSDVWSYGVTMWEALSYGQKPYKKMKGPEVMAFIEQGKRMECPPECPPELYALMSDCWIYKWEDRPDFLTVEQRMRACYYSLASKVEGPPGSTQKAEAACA
Chain of Protein kinase C beta type (P05771 whole entry): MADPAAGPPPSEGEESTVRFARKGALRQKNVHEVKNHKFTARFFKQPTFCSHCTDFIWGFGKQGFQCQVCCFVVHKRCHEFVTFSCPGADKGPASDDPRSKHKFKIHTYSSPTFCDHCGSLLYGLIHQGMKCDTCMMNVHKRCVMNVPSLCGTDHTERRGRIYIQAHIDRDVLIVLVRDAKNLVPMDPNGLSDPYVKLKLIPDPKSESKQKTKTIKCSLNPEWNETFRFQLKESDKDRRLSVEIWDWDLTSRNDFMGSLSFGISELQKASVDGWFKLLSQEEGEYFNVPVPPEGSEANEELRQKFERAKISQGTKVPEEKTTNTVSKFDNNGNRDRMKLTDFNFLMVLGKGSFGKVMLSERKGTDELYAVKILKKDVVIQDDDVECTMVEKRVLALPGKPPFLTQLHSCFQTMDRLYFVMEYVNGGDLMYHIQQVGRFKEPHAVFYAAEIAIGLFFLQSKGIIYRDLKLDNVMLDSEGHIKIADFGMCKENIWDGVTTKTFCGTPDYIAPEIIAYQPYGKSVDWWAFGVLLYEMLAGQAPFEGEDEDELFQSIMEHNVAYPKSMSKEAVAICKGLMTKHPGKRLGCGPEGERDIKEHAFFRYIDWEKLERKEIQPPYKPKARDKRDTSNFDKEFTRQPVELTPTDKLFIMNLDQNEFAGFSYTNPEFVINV

CC(C)(C)c1cnc(CSc2cnc(NC(=O)Cc3ccc(CNC(CO)CO)cc3)s2)o1
Tmax [1]: 4.8 min
Tmax [2]: 0.33 h
MRT (Mus musculus [3]): 2.9 h
MRT [4]: 1.8 h
MRT [5]: 4.1 h
LCK (A2780 [6]): 3.3
AUC total (Mus musculus [7]): 4.98 µM·h
AUC total (Mus musculus [8]): 1.2 µM·h
AUC total (Mus musculus [9]): 2.7 µM·h
Vd [10]: 6.9 L/kg
Tmax [11]: 1 h
half-life [12]: 1.8 h
half-life [13]: 2.2 h
half-life [14]: 1.4 h
Cmax [15]: 8.27 µM
Cmax [16]: 0.635 µM
clearance [17]: 67 mL/min/kg
Cmax [18]: 0.8 µM
bioavailability [19]: 24%
IC50 [20]: 0.1 µM
IC50 [21]: > 25 µM
Activity (Homo sapiens [22]): 78%
IC50 [23]: 28 µM
IC50 [24]: 24 µM
Rate (Mus musculus [25]): 0.22 nM min-1 (mg of protein)-1
Activity (Mus musculus [26]): 79%
T/C (P388): 140%
IC50 [27]: > 45 µM
IC50 [28]: 45 µM
IC50 [29]: > 45 µM
IC50 [30]: 5.6 µM
IC50 [31]: 29 µM
IC50 [32]: > 50 µM
Rate (Homo sapiens [33]): 0.21 nM min-1 (mg of protein)-1
IC50 [34]: 35 µM

CCc1cnc(CSc2cnc(NC(=O)Cc3cccnc3)s2)o1
MRT [35]: 0.8 h
LCK (A2780 [6]): 0.4
AUC (Mus musculus [9]): 23 µM·h
Tmax [11]: 0.5 h
half-life [12]: 1.1 h
Cmax [18]: 40 µM
Cell cycle [36]: 71%
Cell cycle [37]: 20%
Cell cycle [38]: 7%
Cell cycle [39]: 2%
Cell cycle [40]: 50%
Cell cycle [41]: 18%
Cell cycle [42]: 7%
Cell cycle [43]: 69%
Cell cycle [44]: 4%
IC50 [45]: 0.08 µM
IC50 [46]: 0.005 µM
IC50 [20]: 1.09 µM
IC50 (HS27): 0.86 µM
Activity (Homo sapiens [22]): 82%
IC50 (MLF): 1.86 µM
T/C (P388): 115%
IC50 (M109): 2.1 µM
IC50 (A2780 [47]): 0.24 µM
Cell cycle [48]: 25%
